The values that follow come from US20250353852A1, “COMPOUNDS AND COMPOSITIONS THAT INHIBIT PIKFYVE” (Kineta, Inc., priority 2021, published 2025).

A value given as a limit tells only on which side of the number the result lay.

The target in the first assay is full-length human PIKFYVE (Homo sapiens (Human), UniProt Q9Y2I7, L932S/Q1183K/Q995L/S1033A/S696N/T998S). Briefly: PIKfyve biochemical assay (ADP-Glo Kinase assay, Carna Biosciences). Conditions: class symbols. From the text: PIKfyve Biochemical Assay. The biochemical […] inhibition assays were run by Carna Biosciences according to proprietary methodology based on the Promega […] Kinase assay. […] NP_055855.2] was expressed as N-terminal GST-fusion protein (265 kDa) using baculovirus expression system. GST-PIKFYVE was purified by using glutathione sepharose chromatography and used in an ADP-GloTM Kinase assay (Promega). Reactions were set up by adding the test compound solution, substrate solution, ATP solution and kinase solution, each at 4× final concentrations. Reactions were prepared with assay buffer (50 mM MOPS, 1 mM DTT, pH7.2), mixed, and incubated in black 384 well polystyrene plates for 1 hour at room temperature. ADP-Glo^TM reagent was then added for 40 minutes, followed by kinase detection reagent for an additional 40 minutes. The kinase activity was evaluated by detecting relative light units on a luminescence plate reader. […] IC50 values were calculated from concentration vs % inhibition curves by fitting to a four-parameter logistic curve. […] The biochemical […] inhibition assays were run by Carna Biosciences according to proprietary methodology based on the Promega ADP-GloTM Kinase assay. […] GST-PIKFYVE was purified by using glutathione sepharose chromatography and used in an ADP-GIoTM Kinase assay (Promega). Reactions were set up by adding the test compound solution, substrate solution, ATP solution and kinase solution, each at 4× final concentrations. Reactions were prepared with assay buffer (50 mM MOPS, 1 mM DTT, pH7.2), mixed, and incubated in black 384 well polystyrene plates for 1 hour at room temperature. ADP-GIoTM reagent was then added for 40 minutes, followed by kinase detection reagent for an additional 40 minutes. The kinase activity was evaluated by detecting relative light units on a luminescence plate reader. […] IC50 values were calculated from concentration vs % inhibition curves by fitting to a four-parameter logistic curve. […] The same compounds were also tested in both FAB1 and PIKFYVE TDP-43 yeast models.
full-length human PIKFYVE, sequence (Q9Y2I7 whole entry S696N/L932S/Q995L/T998S/S1033A/Q1183K, the tested form may be a part): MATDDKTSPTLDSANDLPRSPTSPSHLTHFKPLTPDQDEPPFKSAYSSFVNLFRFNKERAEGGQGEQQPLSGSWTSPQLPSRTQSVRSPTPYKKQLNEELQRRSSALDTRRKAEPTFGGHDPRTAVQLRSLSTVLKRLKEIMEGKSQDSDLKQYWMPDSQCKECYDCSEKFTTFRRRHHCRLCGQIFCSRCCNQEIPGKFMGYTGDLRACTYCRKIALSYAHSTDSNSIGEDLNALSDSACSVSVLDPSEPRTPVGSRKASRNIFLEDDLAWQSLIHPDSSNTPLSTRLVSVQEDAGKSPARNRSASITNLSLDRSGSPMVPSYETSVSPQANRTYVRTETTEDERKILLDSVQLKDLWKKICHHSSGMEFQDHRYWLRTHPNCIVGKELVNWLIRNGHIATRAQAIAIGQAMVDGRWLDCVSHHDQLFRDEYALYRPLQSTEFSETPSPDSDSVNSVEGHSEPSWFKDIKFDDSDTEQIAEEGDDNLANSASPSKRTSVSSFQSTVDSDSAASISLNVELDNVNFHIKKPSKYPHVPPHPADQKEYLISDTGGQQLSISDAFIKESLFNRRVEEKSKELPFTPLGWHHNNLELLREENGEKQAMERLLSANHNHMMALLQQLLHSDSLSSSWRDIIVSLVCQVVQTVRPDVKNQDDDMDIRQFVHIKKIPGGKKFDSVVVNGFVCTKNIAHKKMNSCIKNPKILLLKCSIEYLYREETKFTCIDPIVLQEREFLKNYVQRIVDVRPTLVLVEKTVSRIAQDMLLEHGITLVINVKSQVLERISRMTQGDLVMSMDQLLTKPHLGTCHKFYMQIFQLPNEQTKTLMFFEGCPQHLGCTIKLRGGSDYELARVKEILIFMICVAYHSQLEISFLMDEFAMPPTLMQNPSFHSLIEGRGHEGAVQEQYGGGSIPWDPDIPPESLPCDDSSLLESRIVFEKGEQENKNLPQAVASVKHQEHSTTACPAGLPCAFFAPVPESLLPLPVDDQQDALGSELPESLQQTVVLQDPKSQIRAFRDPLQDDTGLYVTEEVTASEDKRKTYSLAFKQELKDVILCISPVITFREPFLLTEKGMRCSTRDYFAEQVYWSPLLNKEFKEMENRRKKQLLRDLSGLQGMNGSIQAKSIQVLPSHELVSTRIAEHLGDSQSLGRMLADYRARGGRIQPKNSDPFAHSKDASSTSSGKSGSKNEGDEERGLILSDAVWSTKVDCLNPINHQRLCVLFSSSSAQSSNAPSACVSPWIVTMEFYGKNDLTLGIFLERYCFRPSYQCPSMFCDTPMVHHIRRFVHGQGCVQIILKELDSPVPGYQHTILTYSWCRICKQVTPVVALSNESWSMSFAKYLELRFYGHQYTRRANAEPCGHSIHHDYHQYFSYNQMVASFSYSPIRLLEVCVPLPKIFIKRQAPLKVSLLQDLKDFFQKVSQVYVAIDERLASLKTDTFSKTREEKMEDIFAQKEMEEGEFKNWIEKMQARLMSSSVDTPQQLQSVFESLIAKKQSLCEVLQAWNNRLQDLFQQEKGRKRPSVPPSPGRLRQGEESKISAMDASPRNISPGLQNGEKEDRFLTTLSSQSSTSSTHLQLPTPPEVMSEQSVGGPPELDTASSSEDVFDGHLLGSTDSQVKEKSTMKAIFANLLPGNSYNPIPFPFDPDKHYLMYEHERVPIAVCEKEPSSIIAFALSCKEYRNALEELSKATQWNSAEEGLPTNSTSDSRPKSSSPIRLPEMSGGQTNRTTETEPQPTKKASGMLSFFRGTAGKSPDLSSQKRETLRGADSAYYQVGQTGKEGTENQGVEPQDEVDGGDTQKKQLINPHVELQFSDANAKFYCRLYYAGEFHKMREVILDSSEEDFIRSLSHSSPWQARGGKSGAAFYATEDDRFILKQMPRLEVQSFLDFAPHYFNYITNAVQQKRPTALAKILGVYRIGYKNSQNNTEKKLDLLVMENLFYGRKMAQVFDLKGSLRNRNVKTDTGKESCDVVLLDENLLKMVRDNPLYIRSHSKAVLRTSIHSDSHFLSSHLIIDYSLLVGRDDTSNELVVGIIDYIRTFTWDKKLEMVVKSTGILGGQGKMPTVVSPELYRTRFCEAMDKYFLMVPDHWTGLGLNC
In general terms: ADP-Glo turns the ADP formed in a reaction into a luminescent signal.
As to `Oc1cc(-c2cc(N3CCOCC3)n3nc(-c4ccncc4)cc3n2)nn1-c1ccccc1` [Compound 57, 3-(7-morpholino-2-(pyridin-4-yl)pyrazolo[1,5-a]pyrimidin-5-yl)-1-phenyl-1H-pyrazol-5-ol], the IC50 (as a rule, the concentration that inhibits the measured activity by half) was 10 to 100 nM.
Same read-out and setting: the figure for `c1ccc(-c2nsc(-c3cc(N4CCOCC4)n4nc(-c5ccncc5)cc4n3)n2)cc1` [Compound 127, 4-(5-(3-phenyl-1,2,4-thiadiazol-5-yl)-2-(pyridin-4-yl)pyrazolo[1,5-a]pyrimidin-7-yl)morpholine] is 10 to 100 nM.
Turning to `CC(C)c1cc(O)n(-c2cc(N3CCOCC3)n3nc(-c4ccncc4)cc3n2)n1` [Compound 54, 3-isopropyl-1-(7-morpholino-2-(pyridin-4-yl)pyrazolo[1,5-a]pyrimidin-5-yl)-1H-pyrazol-5-ol], the half-maximal inhibitory concentration (IC50) is 100 to 1000 nM.
On the same count and under the same terms, for “4-(5-(3-(2-fluorophenyl)-1H-pyrazol-1-yl)-2-(tetrahydrofuran-2-yl)pyrazolo[1,5-a]pyrimidin-7-yl)morpholine [Compound 91]” the value was 100 to 1000 nM; for `CN1CCC(c2ccn(-c3cc(N4CCOCC4)n4nc(-c5ccncc5)cc4n3)n2)CC1` [Compound 63, 4-(5-(3-(1-methylpiperidin-4-yl)-1H-pyrazol-1-yl)-2-(pyridin-4-yl)pyrazolo[1,5-a]pyrimidin-7-yl)morpholine], 100 to 1000 nM.
For the molecule `c1ccc(N2CC(c3cc(N4CCOCC4)n4nc(-c5ccncc5)cc4n3)C2)cc1` [Compound 121, 4-(5-(1-phenylazetidin-3-yl)-2-(pyridin-4-yl)pyrazolo[1,5-a]pyrimidin-7-yl)morpholine], the IC50 is over 10000 nM.
On the same count and under the same terms, the figure for `Fc1cccc(Oc2ncccc2-c2cc(N3CCOCC3)n3nc(-c4ccncc4)cc3n2)c1` [Compound 137, 4-(5-(2-(3-fluorophenoxy)pyridin-3-yl)-2-(pyridin-4-yl)pyrazolo[1,5-a]pyrimidin-7-yl)morpholine] is 100 to 1000 nM; for `Fc1cc(N2CCOCC2)n2nc(-c3ccncc3)cc2n1` [Compound 29, 4-(5-fluoro-2-(pyridin-4-yl)pyrazolo[1,5-a]pyrimidin-7-yl)morpholine] it is 100 to 1000 nM.
For the molecule `c1ccc(C2CCCN(c3cc(N4CCOCC4)n4nc(-c5ccncc5)cc4n3)C2)cc1` (centres unmarked) [Compound 34, 4-(5-(3-phenylpiperidin-1-yl)-2-(pyridin-4-yl)pyrazolo[1,5-a]pyrimidin-7-yl)morpholine], the 50% inhibitory concentration (IC50) was 1000 to 10000 nM.
Take `c1ccc(C2CN(c3cc(N4CCOCC4)n4nc(-c5ccncc5)cc4n3)C2)cc1` [Compound 32, 4-(5-(3-phenylazetidin-1-yl)-2-(pyridin-4-yl)pyrazolo[1,5-a]pyrimidin-7-yl)morpholine]: the 50% inhibitory concentration (IC50) lay in the range of 1000 to 10000 nM.
As for `Cc1cccc(/C=N/Nc2cc(N3CC4CC3CO4)n3nc(-c4ccncc4)cc3n2)c1` (centres unmarked) [Compound 1, (E)-5-(5-(2-(3-methylbenzylidene)hydrazinyl)-2-(pyridin-4-yl)pyrazolo[1,5-a]pyrimidin-7-yl)-2-oxa-5-azabicyclo[2.2.1]heptane], the IC50 fell in the range of 10 to 100 nM.
Turning to `OCCc1ccn(-c2cc(N3CCOCC3)n3nc(-c4ccncc4)cc3n2)n1` [Compound 80, 2-(1-(7-morpholino-2-(pyridin-4-yl)pyrazolo[1,5-a]pyrimidin-5-yl)-1H-pyrazol-3-yl)ethan-1-ol], the IC50 was in the range of 100 to 1000 nM.
In the case of `c1ccc(-c2ccn(-c3cc(N4CCOCC4)n4nc(C5CCOCC5)cc4n3)n2)cc1` [Compound 98, 4-(5-(3-phenyl-1H-pyrazol-1-yl)-2-(tetrahydro-2H-pyran-4-yl)pyrazolo[1,5-a]pyrimidin-7-yl)morpholine], the IC50 lay in the range of 100 to 1000 nM.
Take `COc1cnn(-c2cc(N3CCOCC3)n3nc(-c4ccncc4)cc3n2)c(=O)c1Br` [Compound 7, 4-bromo-5-methoxy-2-(7-morpholino-2-(pyridin-4-yl)pyrazolo[1,5-a]pyrimidin-5-yl)pyridazin-3(2H)-one]: the half-maximal inhibitory concentration (IC50) lay within 1000 to 10000 nM.
Still for that read-out and setting: for `OCC1(c2ccn(-c3cc(N4CCOCC4)n4nc(-c5ccncc5)cc4n3)n2)CC1` [Compound 82, (1-(1-(7-morpholino-2-(pyridin-4-yl)pyrazolo[1,5-a]pyrimidin-5-yl)-1H-pyrazol-3-yl)cyclopropyl)methanol] the value was 100 to 1000 nM.
`Cc1cccc(CCOc2cc(N3CCOCC3)n3nc(-c4ccncc4)cc3n2)c1` [Compound 2, 4-(5-(3-methylphenethoxy)-2-(pyridin-4-yl)pyrazolo[1,5-a]pyrimidin-7-yl)morpholine]: the IC50 was in the range of 1000 to 10000 nM.
Take `COCC1(c2ccn(-c3cc(N4CCOCC4)n4nc(-c5ccncc5)cc4n3)n2)CC1` [Compound 83, 4-(5-(3-(1-(methoxymethyl)cyclopropyl)-1H-pyrazol-1-yl)-2-(pyridin-4-yl)pyrazolo[1,5-a]pyrimidin-7-yl)morpholine]: the 50% inhibitory concentration (IC50) was in the range of 100 to 1000 nM.
Same read-out and setting: for `Fc1cccc(-c2ccn(-c3cc(N4CCOCC4)n4nc(C5CCCO5)cc4n3)n2)c1` (centres unmarked) [Compound 94, 4-(5-(3-(3-fluorophenyl)-1H-pyrazol-1-yl)-2-(tetrahydrofuran-2-yl)pyrazolo[1,5-a]pyrimidin-7-yl)morpholine] the value was 100 to 1000 nM; for `C=Cc1cc2nc(-n3ccc(-c4ccccc4)n3)cc(N3CCOCC3)n2n1` [Compound 143, 4-(5-(3-phenyl-1H-pyrazol-1-yl)-2-vinylpyrazolo[1,5-a]pyrimidin-7-yl)morpholine], 100 to 1000 nM; for `COc1cccc(-c2ccn(-c3cc(N4CCOCC4)n4nc(C5CCCO5)cc4n3)n2)c1` (centres unmarked) [Compound 93, 4-(5-(3-(3-methoxyphenyl)-1H-pyrazol-1-yl)-2-(tetrahydrofuran-2-yl)pyrazolo[1,5-a]pyrimidin-7-yl)morpholine], 10 to 100 nM.
Regarding `O=c1c(-c2ccccc2)ccnn1-c1cc(N2CCOCC2)n2nc(-c3ccncc3)cc2n1` [Compound 5, 2-(7-morpholino-2-(pyridin-4-yl)pyrazolo[1,5-a]pyrimidin-5-yl)-4-phenylpyridazin-3(2H)-one], the half-maximal inhibitory concentration (IC50) fell in the range of 100 to 1000 nM.
`CN1CC(c2cc(N3CCOCC3)n3nc(-c4ccncc4)cc3n2)CC1c1ccccc1` (centres unmarked) [Compound 19, 4-(5-(1-methyl-5-phenylpyrrolidin-3-yl)-2-(pyridin-4-yl)pyrazolo[1,5-a]pyrimidin-7-yl)morpholine] showed an IC50 of 1000 to 10000 nM.
Same read-out and setting: for `c1ccc(C2CC(c3cc(N4CCOCC4)n4nc(-c5ccncc5)cc4n3)CN2)cc1` (centres unmarked) [Compound 112, 4-(5-(5-phenylpyrrolidin-3-yl)-2-(pyridin-4-yl)pyrazolo[1,5-a]pyrimidin-7-yl)morpholine] the value was 1000 to 10000 nM; for `CN1CCN(c2cc(N3CCOCC3)n3nc(-c4ccncc4)cc3n2)C(Cc2ccccc2)C1` (centres unmarked) [Compound 118, 4-(5-(2-benzyl-4-methylpiperazin-1-yl)-2-(pyridin-4-yl)pyrazolo[1,5-a]pyrimidin-7-yl)morpholine], 1000 to 10000 nM.
In turn, `O=C1C(c2ccccc2)CCN1c1cc(N2CCOCC2)n2nc(-c3ccncc3)cc2n1` (centres unmarked) [Compound 23, 1-(7-morpholino-2-(pyridin-4-yl)pyrazolo[1,5-a]pyrimidin-5-yl)-3-phenylpyrrolidin-2-one] registered a concentration for half-maximal inhibition (IC50) of 100 to 1000 nM.
Turning to `c1ccc(-c2cc(N3CCOCC3)n3nc(-c4ccncc4)cc3n2)nc1` [Compound 132], the IC50 was 100 to 1000 nM.
`c1cc(-c2cc3nc(-n4ccc(C5CCCNC5)n4)cc(N4CCOCC4)n3n2)ccn1` (single isomer, unassigned) [Compound 75, 4-(5-(3-(piperidin-3-yl)-1H-pyrazol-1-yl)-2-(pyridin-4-yl)pyrazolo[1,5-a]pyrimidin-7-yl)morpholine]: the IC50 is 100 to 1000 nM.
Same read-out and setting: for `NC(=O)c1cc(N2CCOCC2)n2nc(-c3ccncc3)cc2n1` [Compound 102, 7-morpholino-2-(pyridin-4-yl)pyrazolo[1,5-a]pyrimidine-5-carboxamide] the value was 1000 to 10000 nM; for `Oc1cc(-c2cc(N3CCOCC3)n3nc(-c4ccncc4)cc3n2)nn1-c1cccnc1` [Compound 58, 3-(7-morpholino-2-(pyridin-4-yl)pyrazolo[1,5-a]pyrimidin-5-yl)-1-(pyridin-3-yl)-1H-pyrazol-5-ol], 10 to 100 nM.
Same read-out and setting: for `c1cc(-c2cc3nc(-n4ccc(C5CCCOC5)n4)cc(N4CCOCC4)n3n2)ccn1` (centres unmarked) [Compound 61, 4-(2-(pyridin-4-yl)-5-(3-(tetrahydro-2H-pyran-3-yl)-1H-pyrazol-1-yl)pyrazolo[1,5-a]pyrimidin-7-yl)morpholine] the value was 1000 to 10000 nM.

The assay is the same for the next values; noted with them: numeric values.
`c1ccc(Oc2nccc(-c3cc(N4CCOCC4)n4nc(-c5ccncc5)cc4n3)n2)cc1` [Compound 141, 4-(5-(2-phenoxypyrimidin-4-yl)-2-(pyridin-4-yl)pyrazolo[1,5-a]pyrimidin-7-yl)morpholine] came in with an IC50 of 1000 nM.
With `Fc1cccc(-c2ccnn2-c2cc(N3CCOCC3)n3nc(-c4ccncc4)cc3n2)c1` [Compound 147, 4-(5-(5-(3-fluorophenyl)-1H-pyrazol-1-yl)-2-(pyridin-4-yl)pyrazolo[1,5-a]pyrimidin-7-yl)morpholine], half-maximal inhibition (IC50) was put at 1570 nM.
